Measured values: PubChem BioAssay AID1918943 (Molecular Pharmacology Branch, DTP, NCI, 2023)
“And” between values parts separate entries of the source, which are not always exact repeats. Equal entries are not always repeated.

Test system: 855422-203-R-J1-PDC complex spheroid viability
Test: Anticancer human tumor 855422-203-R-J1-PDC patient-derived bladder carcinoma cell line growth inhibition
Conditions: for viability, T/C: stronger effect = lower value
Method in brief: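 Complex spheroids of tumor cells with HUVEC and human MSCs, exposed to iadademstat combined with other agents. Each agent tested in half-log steps from near clinical Cmax (else 10 microM top), DMSO ≤0.25%.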

[1] = curve of first compound, second compound 0.1 µM
[2] = curve of first compound, second compound 0.316 µM
[3] = curve of first compound, second compound 1 µM
[4] = curve of first compound, second compound 3.16 µM
[5] = curve of first compound, second compound 10 µM
[6] = second compound 0.1 µM, first compound 0.0316 µM
[7] = second compound 0.1 µM, first compound 0.1 µM
[8] = second compound 0.1 µM, first compound 0.316 µM
[9] = second compound 0.1 µM, first compound 1 µM
[10] = second compound 0.1 µM, first compound 3.16 µM
[11] = second compound 0.1 µM, first compound 10 µM
[12] = second compound 0.316 µM, first compound 0.0316 µM
[13] = second compound 0.316 µM, first compound 0.1 µM
[14] = second compound 0.316 µM, first compound 0.316 µM
[15] = second compound 0.316 µM, first compound 1 µM
[16] = second compound 0.316 µM, first compound 3.16 µM
[17] = second compound 0.316 µM, first compound 10 µM
[18] = second compound 1 µM, first compound 0.0316 µM
[19] = second compound 1 µM, first compound 0.1 µM
[20] = second compound 1 µM, first compound 0.316 µM
[21] = second compound 1 µM, first compound 1 µM
[22] = second compound 1 µM, first compound 3.16 µM
[23] = second compound 1 µM, first compound 10 µM
[24] = second compound 3.16 µM, first compound 0.0316 µM
[25] = second compound 3.16 µM, first compound 0.1 µM
[26] = second compound 3.16 µM, first compound 0.316 µM
[27] = second compound 3.16 µM, first compound 1 µM
[28] = second compound 3.16 µM, first compound 3.16 µM
[29] = second compound 3.16 µM, first compound 10 µM
[30] = second compound 10 µM, first compound 0.0316 µM
[31] = second compound 10 µM, first compound 0.1 µM
[32] = second compound 10 µM, first compound 0.316 µM
[33] = second compound 10 µM, first compound 1 µM
[34] = second compound 10 µM, first compound 3.16 µM
[35] = second compound 10 µM, first compound 10 µM
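Note: drug exposure lasted 7 days starting on day 3 after seeding.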
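Throughout, for viability, T/C: luminescence viability as percent of DMSO vehicle wells = 100%.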

## CC(C)CC(NC(=O)C(Cc1ccccc1)NC(=O)c1cnccn1)B(O)O (stereo unspecified)
Compound 0.000316 µM
  viability, T/C: 90.9% and 115%
Compound 0.001 µM
  viability, T/C: 2.15% and 1.03%
Compound 0.00316 µM
  viability, T/C: 0.11% and 0.13%
Compound 0.01 µM
  viability, T/C: 0.1% and 0.12%
Compound 0.0316 µM
  viability, T/C: 0.09% and 0.13%
Compound 0.1 µM
  viability, T/C: 0.14% and 0.2%
Curve of compound
  IC50: 0.538 nM and 0.61 nM

## CC1COCCN1c1cc(C2(S(C)(=N)=O)CC2)nc(-c2ccnc3[nH]ccc23)n1 (stereo unspecified) + NC1CC1c1ccc(-c2cccc(O)c2)cc1
[1]
  IC50: 2740 nM
[2]
  IC50: 2630 nM
[3]
  IC50: 2490 nM
[4]
  IC50: 2290 nM
[5]
  IC50: 2110 nM
[6]
  viability, T/C: 93.1%
[7]
  viability, T/C: 93.2%
[8]
  viability, T/C: 94.2%
[9]
  viability, T/C: 74.6%
[10]
  viability, T/C: 47.2%
[11]
  viability, T/C: 39.7%
[12]
  viability, T/C: 102%
[13]
  viability, T/C: 91.2%
[14]
  viability, T/C: 97.2%
[15]
  viability, T/C: 79.9%
[16]
  viability, T/C: 44.4%
[17]
  viability, T/C: 43.5%
[18]
  viability, T/C: 87.9%
[19]
  viability, T/C: 84.4%
[20]
  viability, T/C: 93.4%
[21]
  viability, T/C: 75%
[22]
  viability, T/C: 44.1%
[23]
  viability, T/C: 40.5%
[24]
  viability, T/C: 88.4%
[25]
  viability, T/C: 93.4%
[26]
  viability, T/C: 97.1%
[27]
  viability, T/C: 77.2%
[28]
  viability, T/C: 39.7%
[29]
  viability, T/C: 38.9%
[30]
  viability, T/C: 104%
[31]
  viability, T/C: 87.2%
[32]
  viability, T/C: 101%
[33]
  viability, T/C: 75.5%
[34]
  viability, T/C: 34.5%
[35]
  viability, T/C: 37.7%

## CC(C)c1c(-c2ccccc2)nc2c(C#N)c[nH]n2c1=O + NC1CCC(NC2CC2c2ccccc2)CC1
[1]
  IC50: > 10000 nM
[2]
  IC50: > 10000 nM
[3]
  IC50: > 10000 nM
[4]
  IC50: > 10000 nM
[5]
  IC50: > 10000 nM
[6]
  viability, T/C: 82.4%
[7]
  viability, T/C: 88%
[8]
  viability, T/C: 92.9%
[9]
  viability, T/C: 87.7%
[10]
  viability, T/C: 85.3%
[11]
  viability, T/C: 74.7%
[12]
  viability, T/C: 93.2%
[13]
  viability, T/C: 85.3%
[14]
  viability, T/C: 93.4%
[15]
  viability, T/C: 83.3%
[16]
  viability, T/C: 77.1%
[17]
  viability, T/C: 74%
[18]
  viability, T/C: 88.6%
[19]
  viability, T/C: 92.2%
[20]
  viability, T/C: 85.9%
[21]
  viability, T/C: 86.7%
[22]
  viability, T/C: 80.1%
[23]
  viability, T/C: 75.3%
[24]
  viability, T/C: 89.1%
[25]
  viability, T/C: 80.4%
[26]
  viability, T/C: 81.1%
[27]
  viability, T/C: 77.1%
[28]
  viability, T/C: 79.9%
[29]
  viability, T/C: 80.2%
[30]
  viability, T/C: 82.9%
[31]
  viability, T/C: 91.7%
[32]
  viability, T/C: 84.4%
[33]
  viability, T/C: 74.6%
[34]
  viability, T/C: 69.6%
[35]
  viability, T/C: 73.4%

## Nc1ncn(C2CC(O)C(CO)O2)c(=O)n1 (stereo unspecified) + NC1CC1c1ccc(-c2cccc(O)c2)cc1
[1]
  IC50: > 1000 nM
[2]
  IC50: > 1000 nM
[3]
  IC50: > 1000 nM
[4]
  IC50: > 1000 nM
[5]
  IC50: > 1000 nM
Second compound 0.1 µM, first compound 0.00316 µM
  viability, T/C: 104%
Second compound 0.1 µM, first compound 0.01 µM
  viability, T/C: 98.2%
[6]
  viability, T/C: 99.7%
[7]
  viability, T/C: 106%
[8]
  viability, T/C: 93.5%
[9]
  viability, T/C: 92.4%
Second compound 0.316 µM, first compound 0.00316 µM
  viability, T/C: 104%
Second compound 0.316 µM, first compound 0.01 µM
  viability, T/C: 95%
[12]
  viability, T/C: 96.5%
[13]
  viability, T/C: 91.6%
[14]
  viability, T/C: 90.3%
[15]
  viability, T/C: 88.7%
Second compound 1 µM, first compound 0.00316 µM
  viability, T/C: 84.9%
Second compound 1 µM, first compound 0.01 µM
  viability, T/C: 88.6%
[18]
  viability, T/C: 89.2%
[19]
  viability, T/C: 93.5%
[20]
  viability, T/C: 91.5%
[21]
  viability, T/C: 86.7%
Second compound 3.16 µM, first compound 0.00316 µM
  viability, T/C: 91.6%
Second compound 3.16 µM, first compound 0.01 µM
  viability, T/C: 83.3%
[24]
  viability, T/C: 88%
[25]
  viability, T/C: 86.6%
[26]
  viability, T/C: 89.5%
[27]
  viability, T/C: 84.2%
Second compound 10 µM, first compound 0.00316 µM
  viability, T/C: 74.7%
Second compound 10 µM, first compound 0.01 µM
  viability, T/C: 76.8%
[30]
  viability, T/C: 84.2%
[31]
  viability, T/C: 82%
[32]
  viability, T/C: 94.8%
[33]
  viability, T/C: 85.2%

## CC(C)c1c(-c2ccccc2)nc2c(C#N)c[nH]n2c1=O + NC1CC1c1ccc(-c2cccc(O)c2)cc1
[1]
  IC50: > 10000 nM
[2]
  IC50: > 10000 nM
[3]
  IC50: > 10000 nM
[4]
  IC50: > 10000 nM
[5]
  IC50: > 10000 nM
[6]
  viability, T/C: 96.8%
[7]
  viability, T/C: 109%
[8]
  viability, T/C: 93.8%
[9]
  viability, T/C: 95.7%
[10]
  viability, T/C: 95.5%
[11]
  viability, T/C: 86.2%
[12]
  viability, T/C: 98.2%
[13]
  viability, T/C: 94.7%
[14]
  viability, T/C: 99.7%
[15]
  viability, T/C: 87.4%
[16]
  viability, T/C: 88%
[17]
  viability, T/C: 83.6%
[18]
  viability, T/C: 96.5%
[19]
  viability, T/C: 102%
[20]
  viability, T/C: 93.6%
[21]
  viability, T/C: 86.2%
[22]
  viability, T/C: 90.5%
[23]
  viability, T/C: 80.4%
[24]
  viability, T/C: 98.8%
[25]
  viability, T/C: 96%
[26]
  viability, T/C: 94.2%
[27]
  viability, T/C: 88.9%
[28]
  viability, T/C: 86.1%
[29]
  viability, T/C: 83.7%
[30]
  viability, T/C: 86.1%
[31]
  viability, T/C: 86.6%
[32]
  viability, T/C: 88.7%
[33]
  viability, T/C: 86.9%
[34]
  viability, T/C: 81.3%
[35]
  viability, T/C: 73.9%

## CC1COCCN1c1cc(C2(S(C)(=N)=O)CC2)nc(-c2ccnc3[nH]ccc23)n1 (stereo unspecified)
Compound 0.0316 µM
  viability, T/C: 108% and 93.8%
Compound 0.1 µM
  viability, T/C: 99.9% and 93.1%
Compound 0.316 µM
  viability, T/C: 101% and 94.4%
Compound 1 µM
  viability, T/C: 84.9% and 85.9%
Compound 3.16 µM
  viability, T/C: 45% and 36.6%
Compound 10 µM
  viability, T/C: 40.7% and 35%
Curve of compound
  IC50: 2760 nM and 2310 nM

## CCc1c2c(nc3ccc(O)cc13)-c1cc3c(c(=O)n1C2)COC(=O)[C@]3(O)CC
Compound 0.000949 µM
  viability, T/C: 14.2% and 14.1%
Compound 0.003 µM
  viability, T/C: 10.3% and 11.1%
Compound 0.00949 µM
  viability, T/C: 6.95% and 8.29%
Compound 0.03 µM
  viability, T/C: 5.21% and 4.8%
Compound 0.0949 µM
  viability, T/C: 3.58% and 2.82%
Compound 0.3 µM
  viability, T/C: 1.67% and 10.8%
Curve of compound
  IC50: < 0.949 nM

## Nc1ccn(C2OC(CO)C(O)C2(F)F)c(=O)n1 (stereo unspecified) + NC1CC1c1ccc(-c2cccc(O)c2)cc1
[1]
  IC50: 2.84 nM
[2]
  IC50: 3.19 nM
[3]
  IC50: 2.95 nM
[4]
  IC50: 2.25 nM
[5]
  IC50: 3.01 nM
Second compound 0.1 µM, first compound 0.000949 µM
  viability, T/C: 84.7%
Second compound 0.1 µM, first compound 0.003 µM
  viability, T/C: 46.3%
Second compound 0.1 µM, first compound 0.00949 µM
  viability, T/C: 33.9%
Second compound 0.1 µM, first compound 0.03 µM
  viability, T/C: 25.2%
Second compound 0.1 µM, first compound 0.0949 µM
  viability, T/C: 22.6%
Second compound 0.1 µM, first compound 0.3 µM
  viability, T/C: 18.3%
Second compound 0.316 µM, first compound 0.000949 µM
  viability, T/C: 86.9%
Second compound 0.316 µM, first compound 0.003 µM
  viability, T/C: 49%
Second compound 0.316 µM, first compound 0.00949 µM
  viability, T/C: 34.2%
Second compound 0.316 µM, first compound 0.03 µM
  viability, T/C: 26.7%
Second compound 0.316 µM, first compound 0.0949 µM
  viability, T/C: 19.9%
Second compound 0.316 µM, first compound 0.3 µM
  viability, T/C: 17.1%
Second compound 1 µM, first compound 0.000949 µM
  viability, T/C: 76%
Second compound 1 µM, first compound 0.003 µM
  viability, T/C: 48.5%
Second compound 1 µM, first compound 0.00949 µM
  viability, T/C: 36%
Second compound 1 µM, first compound 0.03 µM
  viability, T/C: 25%
Second compound 1 µM, first compound 0.0949 µM
  viability, T/C: 20.4%
Second compound 1 µM, first compound 0.3 µM
  viability, T/C: 20.6%
Second compound 3.16 µM, first compound 0.000949 µM
  viability, T/C: 76.8%
Second compound 3.16 µM, first compound 0.003 µM
  viability, T/C: 36.9%
Second compound 3.16 µM, first compound 0.00949 µM
  viability, T/C: 33.3%
Second compound 3.16 µM, first compound 0.03 µM
  viability, T/C: 25.1%
Second compound 3.16 µM, first compound 0.0949 µM
  viability, T/C: 17.8%
Second compound 3.16 µM, first compound 0.3 µM
  viability, T/C: 18.8%
Second compound 10 µM, first compound 0.000949 µM
  viability, T/C: 77.4%
Second compound 10 µM, first compound 0.003 µM
  viability, T/C: 46.4%
Second compound 10 µM, first compound 0.00949 µM
  viability, T/C: 38%
Second compound 10 µM, first compound 0.03 µM
  viability, T/C: 28%
Second compound 10 µM, first compound 0.0949 µM
  viability, T/C: 23.3%
Second compound 10 µM, first compound 0.3 µM
  viability, T/C: 18.5%
